In patent US20240199635A1, “TETRAHYDROTHIENO PYRIDINE DERIVATIVES AS DDRS INHIBITORS” (CHIESI FARMACEUTICI S.P.A., priority 2021, published 2024):
Like-named read-outs stand apart in the source and are kept apart here.

Assays:
[1] = target: T1, DDR1 (Homo sapiens (Human), UniProt Q08345); assay: DDR1 binding assay (LanthaScreen Europium Kinase Binding assay)
Description: (§1) DDR1 and DDR2 binding assays were performed using Life Technologies LanthaScreen™ Europium Kinase Binding assay. The compounds were incubated with 5 nM DDR1 (Carna Biosciences) or 5 nM DDR2 (Life Technologies) for 1 hour at room temperature in white 384-well OptiPlate (PerkinElmer), containing 20 nM or 10 nM Kinase Tracer 178 respectively and 2 nM Europium labelled anti-GST antibody (Life Technologies) in assay buffer (50 mM HEPES pH 7.5, 10 mM MgCl2, 1 mM EGTA and 0.01% BRIJ35).
(§2) The ratio of fluorescence emission 665 nm/615 nm after excitation at 340 nm was obtained using the Tecan Spark 20M plate reader. IC50 values were determined in GraphPad Prism 7.0 software, using 4 parameter model: log(inhibitor) vs. response. IC50 values were converted in Ki using the Cheng-Prusoff equation (Ki=IC50/(1+[Tracer]/Kd).

[2] = target: DDR2 (Homo sapiens (Human), UniProt Q16832); assay: DDR2 binding assay (LanthaScreen Europium Kinase Binding assay)
Chain of DDR2 (Q16832 22-855): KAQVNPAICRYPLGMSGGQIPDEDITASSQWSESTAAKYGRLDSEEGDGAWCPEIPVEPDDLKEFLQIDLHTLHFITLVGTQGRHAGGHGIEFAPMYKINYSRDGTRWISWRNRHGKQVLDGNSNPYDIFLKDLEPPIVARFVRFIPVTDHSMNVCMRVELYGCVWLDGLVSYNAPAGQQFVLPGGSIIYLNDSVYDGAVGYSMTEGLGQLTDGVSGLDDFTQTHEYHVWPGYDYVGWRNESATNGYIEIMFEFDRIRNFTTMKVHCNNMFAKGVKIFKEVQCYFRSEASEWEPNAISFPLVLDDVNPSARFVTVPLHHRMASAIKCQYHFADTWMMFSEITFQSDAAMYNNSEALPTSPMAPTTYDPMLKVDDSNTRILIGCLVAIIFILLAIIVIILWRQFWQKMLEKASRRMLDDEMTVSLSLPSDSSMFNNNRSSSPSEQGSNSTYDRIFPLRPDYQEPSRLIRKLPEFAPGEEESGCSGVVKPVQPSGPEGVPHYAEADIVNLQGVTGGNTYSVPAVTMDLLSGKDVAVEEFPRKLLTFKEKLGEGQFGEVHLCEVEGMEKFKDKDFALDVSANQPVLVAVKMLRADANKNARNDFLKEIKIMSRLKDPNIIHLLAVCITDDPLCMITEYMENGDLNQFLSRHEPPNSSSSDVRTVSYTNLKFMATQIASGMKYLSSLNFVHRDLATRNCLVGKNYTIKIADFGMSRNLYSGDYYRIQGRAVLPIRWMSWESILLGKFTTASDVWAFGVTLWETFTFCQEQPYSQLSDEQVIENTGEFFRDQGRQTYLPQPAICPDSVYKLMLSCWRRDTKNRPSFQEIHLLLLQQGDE
Description: as §1, §2

[3] = target: T1, DDR1; assay: DDR1 cell based assay (PathHunter U2OS DDR1 assay); settings: U2OS-DDR1 cells, Type II Collagen stimulation, potency class
Description: The inhibition of DDR1 receptor activation by compounds was evaluated by PathHunter® U2OS DDR1 assay (Eurofins DiscoverX), according to the manufacturer's instructions. Briefly, U2OS-DDR1 cells were seeded in white 384-well plates at a density of 5000 cells/well and incubated for 2 hours at 37° C. and 5% CO2. Cells were then treated with compounds at different concentrations and incubated for 30 minutes, before stimulation with bovine Type II Collagen 20 μg/ml and incubation overnight at 37° C. and 5% CO2. PathHunter Detection Reagents were prepared according to the protocol provided by DiscoverX and 20 μl/well of this mix were added to each well. After incubating the plates for 1 hour at room temperature in the dark, luminescence signal was acquired with a plate reader. Raw data were normalized to vehicle control (0% for normalization) and positive control (100% for normalization; cells treated with 20 μg/ml collagen II) and IC50 parameters were calculated in GraphPad Prism 8.0 software, using sigmoidal dose-response curve fitting with variable slope.

[4] = potency class, read-out: Ki DDR1
[5] = potency class, read-out: Ki DDR2

T1 sequence (Q08345 19-913): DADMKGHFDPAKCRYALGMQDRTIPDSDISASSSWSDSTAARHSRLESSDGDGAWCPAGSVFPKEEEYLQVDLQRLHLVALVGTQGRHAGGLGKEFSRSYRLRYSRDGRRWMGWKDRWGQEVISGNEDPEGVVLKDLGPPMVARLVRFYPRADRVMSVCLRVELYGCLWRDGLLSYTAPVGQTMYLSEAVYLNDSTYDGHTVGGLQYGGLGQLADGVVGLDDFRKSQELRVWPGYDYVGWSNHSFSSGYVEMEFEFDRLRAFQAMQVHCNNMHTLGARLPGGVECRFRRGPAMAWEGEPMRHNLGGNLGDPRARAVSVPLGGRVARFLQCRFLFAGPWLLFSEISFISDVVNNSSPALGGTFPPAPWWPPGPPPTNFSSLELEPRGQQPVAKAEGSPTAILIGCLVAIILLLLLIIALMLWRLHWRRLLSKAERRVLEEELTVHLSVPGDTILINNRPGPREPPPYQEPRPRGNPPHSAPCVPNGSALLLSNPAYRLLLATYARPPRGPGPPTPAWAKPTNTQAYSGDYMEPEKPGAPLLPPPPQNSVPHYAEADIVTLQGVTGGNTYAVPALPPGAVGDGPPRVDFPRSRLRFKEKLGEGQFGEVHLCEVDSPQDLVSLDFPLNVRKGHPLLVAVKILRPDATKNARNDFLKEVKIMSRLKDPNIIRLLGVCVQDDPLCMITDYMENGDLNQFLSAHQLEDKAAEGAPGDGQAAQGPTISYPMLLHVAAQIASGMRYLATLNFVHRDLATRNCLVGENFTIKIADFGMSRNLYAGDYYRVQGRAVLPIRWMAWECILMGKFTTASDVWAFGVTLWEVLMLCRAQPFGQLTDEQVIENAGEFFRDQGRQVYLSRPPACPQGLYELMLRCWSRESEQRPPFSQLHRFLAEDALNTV

Row | Structure (SMILES) | Ki [1, 4] [µM] | Ki [2, 5] [µM] | IC50 [3] [µM] | Ki ([1]; read-out: DDR1 Ki) [µM] | Ki ([2]; read-out: DDR2 Ki) [µM]
1 | N#Cc1cc(NC(=O)c2csc3c2CCN(Cc2cnc(N)nc2)C3)cc(C(F)(F)F)c1 [Example 59, 6-((2-aminopyrimidin-5-yl)methyl)-N-(3-cyano-5-(trifluoromethyl)phenyl)-4,5,6,7-tetrahydrothieno[2,3-c]pyridine-3-carboxamide] | < 0.025 | < 0.025 | < 0.025 |  | 
2 | Nc1ncc(CN2CCc3c(C(=O)Nc4cncc(OC(F)(F)F)c4)csc3C2)cn1 [Example 60, 6-((2-aminopyrimidin-5-yl)methyl)-N-(5-(trifluoromethoxy)pyridin-3-yl)-4,5,6,7-tetrahydrothieno[2,3-c]pyridine-3-carboxamide] | < 0.025 | < 0.025 | < 0.025 |  | 
3 | CN(C)[C@@H]1CCN(Cc2cc(NC(=O)c3csc4c3CCN(Cc3cncnc3OC3CC3)C4)cc(C(F)(F)F)c2)C1 [Example 53, (R)-6-((4-cyclopropoxypyrimidin-5-yl)methyl)-N-(3-((3-(dimethylamino)pyrrolidin-1-yl)methyl)-5-(trifluoromethyl)phenyl)-4,5,6,7-tetrahydrothieno[2,3-c]pyridine-3-carboxamide] | < 0.025 | < 0.025 | 0.025 to 0.05 |  | 
4 | CC(C)(c1cc(NC(=O)c2csc3c2CCN(Cc2cnc(N)nc2)C3)no1)C(F)(F)F [Example 62, 6-((2-aminopyrimidin-5-yl)methyl)-N-(5-(1,1,1-trifluoro-2-methylpropan-2-yl)isoxazol-3-yl)-4,5,6,7-tetrahydrothieno[2,3-c]pyridine-3-carboxamide] | < 0.025 | < 0.025 | < 0.025 |  | 
5 | CN1CCN(Cc2cc(NC(=O)c3csc4c3CCN(c3cncnc3)C4)cc(C(F)(F)F)c2)CC1 [Example C1, N-(3-((4-methylpiperazin-1-yl)methyl)-5-(trifluoromethyl)phenyl)-6-(pyrimidin-5-yl)-4,5,6,7-tetrahydrothieno[2,3-c]pyridine-3-carboxamide] |  |  |  | 0.238 | 0.172
6 | Cc1cn(-c2cc(NC(=O)c3cc4c(s3)CN(c3cncnc3)CC4)cc(C(F)(F)F)c2)cn1 [Example C2] |  |  |  | 29 | 50

Other lines, results leading:

Row | Ki [1, 4] [µM] | Ki [2, 5] [µM] | IC50 [3] [µM] | Ki ([1]; read-out: DDR1 Ki) [µM] | Ki ([2]; read-out: DDR2 Ki) [µM] | Structure (SMILES)
7 | < 0.025 | < 0.025 | 0.025 to 0.05 |  |  | O=C(Nc1cccc(C(F)(F)F)c1)c1csc2c1CCN(Cc1cncc(Cl)c1)C2 [Example 20, 6-((5-chloropyridin-3-yl)methyl)-N-(3-(trifluoromethyl)phenyl)-4,5,6,7-tetrahydrothieno[2,3-c]pyridine-3-carboxamide]
8 | < 0.025 | < 0.025 | 0.025 to 0.05 |  |  | COc1cncc(CN2CCc3c(C(=O)Nc4cc(C(C)(C)C)no4)csc3C2)c1 [Example 65, N-(3-(tert-butyl)isoxazol-5-yl)-6-((5-methoxypyridin-3-yl)methyl)-4,5,6,7-tetrahydrothieno[2,3-c]pyridine-3-carboxamide]
9 | < 0.025 | < 0.025 | 0.05 to 0.08 |  |  | O=C(Nc1ccc(F)c(C(F)(F)F)c1)c1csc2c1CCN(Cc1cncnc1)C2 [Example 8, N-(4-fluoro-3-(trifluoromethyl)phenyl)-6-(pyrimidin-5-ylmethyl)-4,5,6,7-tetrahydrothieno[2,3-c]pyridine-3-carboxamide]
10 | < 0.025 | < 0.025 | 0.025 to 0.05 |  |  | O=C(Nc1cc(F)cc(C(F)(F)F)c1)c1csc2c1CCN(Cc1cnc(NCCO)nc1)C2 [Example 44, N-(3-fluoro-5-(trifluoromethyl)phenyl)-6-((2-((2-hydroxyethyl)amino)pyrimidin-5-yl)methyl)-4,5,6,7-tetrahydrothieno[2,3-c]pyridine-3-carboxamide]
11 | < 0.025 | < 0.025 | 0.025 to 0.05 |  |  | O=C(Nc1cccc(C(F)(F)F)c1)c1csc2c1CCN(Cc1cncc(F)c1)C2 [Example 24, 6-((5-fluoropyridin-3-yl)methyl)-N-(3-(trifluoromethyl)phenyl)-4,5,6,7-tetrahydrothieno[2,3-c]pyridine-3-carboxamide]
